Patent publication US20070128217A1 (priority 2003, published 2007)

Key:
[1] = system: control sera (pooled serum of ten healthy LUMC hospital workers; commercial negative donor pooled serum from the Dutch bloodbank); assay type: binding, human; set-up: Binding of Control serum LUMC to linear peptides / Binding of Control serum Blood-bank to linear peptides / Binding of Control serum LUMC to looped peptides / Binding of Control Serum Blood-Bank to Looped peptides / Binding of Control serum LUMC to linear peptides of the protein M of SARS-CoV Urbani / Binding of Control serum Blood-bank to linear peptides of the protein M of SARS-CoV Urbani / Binding of Control serum LUMC to looped peptides of the protein M of SARS-CoV Urbani / Binding of Control Serum Blood-Bank to Looped peptides of the protein M of SARS-CoV Urbani: unit not given here
[2] = system: antibodies in sera from SARS patients (sera 1a, 1b, 2, 6, 37, 62, London, SARS-yellow, SARS-green); assay type: binding, human; set-up: Binding of serum 6 to linear peptides of protein X1 of SARS-CoV Urbani / Binding of serum 37 to linear peptides of protein X1 of SARS-CoV Urbani / Binding of serum 6 to looped/cyclic peptide (PEPSCAN-ELISA) / Binding of serum 37 to looped/cyclic peptide (PEPSCAN-ELISA) / Binding of serum 37 to looped/cyclic peptides of protein X1 of SARS-CoV Urbani / Binding of serum 6 to linear peptides of protein X2 / Binding of serum 37 to linear peptides of protein X2 / Binding of serum 37 to looped/cyclic peptides of protein X2 of SARS-CoV Urbani / Binding of serum 6 to linear peptides of protein M of SARS-CoV Urbani / Binding of serum 37 to linear peptides of protein M of SARS-CoV Urbani / Binding of serum 6 to looped/cyclic peptides of protein M of SARS-CoV Urbani / Binding of serum 37 to looped/cyclic peptides of protein M of SARS-CoV Urbani / Binding of serum 6 to linear peptides of protein X3 of SARS-CoV Urbani / Binding of serum 37 to linear peptides of protein X3 of SARS-CoV Urbani / Binding of serum 37 to looped/cyclic peptides of protein X3 of SARS-CoV Urbani / Binding of serum 6 to linear peptides of protein X4 of SARS-CoV Urbani / Binding of serum 37 to linear peptides of protein X4 of SARS-CoV Urbani / Binding of serum 37 to looped/cyclic peptides of protein X4 of SARS-CoV Urbani / Binding of serum 6 to linear peptides of protein X5 of SARS-CoV Urbani / Binding of serum 37 to linear peptides of protein X5 of SARS-CoV Urbani / Binding of serum 37 to looped/cyclic peptides of protein X5 of SARS-CoV Urbani / Binding of serum 6 to linear peptides of protein N of SARS-CoV Urbani / Binding of serum 37 to linear peptides of protein N of SARS-CoV Urbani / Binding of serum 6 to linear peptide (PEPSCAN-ELISA) / Binding of serum 1a to looped/cyclic peptides of protein N of SARS-CoV Urbani / Binding of serum 1b to looped/cyclic peptides of protein N of SARS-CoV Urbani / Binding of serum 2 to looped/cyclic peptides of protein N of SARS-CoV Urbani / Binding of serum 6 to looped/cyclic peptides of protein N of SARS-CoV Urbani / Binding of serum 37 to looped/cyclic peptides of protein N of SARS-CoV Urbani / Binding of serum 62 to looped/cyclic peptides of protein N of SARS-CoV Urbani / Binding of serum London to looped/cyclic peptides of protein N of SARS-CoV Urbani / Binding of serum SARS-green to looped/cyclic peptides of protein N of SARS-CoV Urbani: unit not given here
[3] = system: rabbit serum obtained by immunizing a rabbit with the SARS-CoV strain Frankfurt 1; assay type: binding; set-up: Binding of a rabbit serum to linear peptides / Binding of a rabbit serum to looped peptides / Rabbit serum linear peptides / Rabbit serum looped peptides / Binding of a rabbit serum to linear peptides of protein N of SARS-CoV Urbani (Rabbit serum linear peptides) / Binding of a rabbit serum to looped/cyclic peptides of protein N of SARS-CoV Urbani (Rabbit serum looped peptides): unit not given here

| Sequence | Binding of Control Serum Blood-Bank to Looped peptides [1] | Binding of Control serum Blood-bank to linear peptides [1] | Binding of Control serum LUMC to linear peptides [1] | Binding of Control serum LUMC to looped peptides [1] | Binding of serum 1a to linear peptides of protein X1 of SARS-CoV Urbani [2] | Binding of serum 1a to looped/cyclic peptide (PEPSCAN-ELISA) [2] | Binding of serum 1b to linear peptides of protein X1 of SARS-CoV Urbani [2] | Binding of serum 1b to looped/cyclic peptide (PEPSCAN-ELISA) [2] | Binding of serum 2 to linear peptides of protein X1 of SARS-CoV Urbani [2] | Binding of serum 2 to looped/cyclic peptide (PEPSCAN-ELISA) [2] | Binding of serum 6 to linear peptides of protein X1 of SARS-CoV Urbani [2] | Binding of serum 6 to looped/cyclic peptide (PEPSCAN-ELISA) [2] | Binding of serum 37 to linear peptides of protein X1 of SARS-CoV Urbani [2] | Binding of serum 37 to looped/cyclic peptide (PEPSCAN-ELISA) [2] | Binding of serum 62 to linear peptides of protein X1 of SARS-CoV Urbani [2] | Binding of serum 62 to looped/cyclic peptide (PEPSCAN-ELISA) [2] | Binding of serum London to linear peptides of protein X1 of SARS-CoV Urbani [2] | Binding of serum London to looped/cyclic peptide (PEPSCAN-ELISA) [2] | Binding of a rabbit serum to linear peptides [3] | Binding of a rabbit serum to looped peptides [3] | also measured |
| --- | --- | --- | --- | --- | --- | --- | --- | --- | --- | --- | --- | --- | --- | --- | --- | --- | --- | --- | --- | --- | --- |
| LLLVAAGMEAQFLYL | 0.5 | 0.6 | 1.0 | 0.7 | 0.9 | 0.6 | 0.8 | 0.5 | 0.6 | 0.6 | 0.5 | 0.3 | 0.6 | 0.7 | 0.6 | 0.7 | 0.2 | 0.2 | 0.2 | 0.5 | Binding of serum SARS-green to linear peptides of protein X1 of SARS-CoV Urbani [2]: 0.1; Binding of serum SARS-green to looped/cyclic peptide (PEPSCAN-ELISA) [2]: 0.5; Binding of serum SARS-yellow to linear peptides of protein X1 of SARS-CoV Urbani [2]: 0.6; Binding of serum SARS-yellow to looped/cyclic peptide (PEPSCAN-ELISA) [2]: 0.6 |
| LLQTLVLKMLHSSSL | 0.6 | 0.5 | 0.3 | 0.6 | – | – | – | – | – | – | – | – | – | – | – | – | – | – | 0.2 | 0.4 | Binding of serum 1a to linear peptides of protein X2 [2]: 0.6; Binding of serum 1a to looped/cyclic peptides of protein X2 of SARS-CoV Urbani [2]: 0.5; Binding of serum 1b to linear peptides of protein X2 [2]: 0.5; Binding of serum 1b to looped/cyclic peptides of protein X2 of SARS-CoV Urbani [2]: 0.5; Binding of serum 2 to linear peptides of protein X2 [2]: 0.3; Binding of serum 2 to looped/cyclic peptides of protein X2 of SARS-CoV Urbani [2]: 0.3; Binding of serum 6 to linear peptides of protein X2 [2]: 0.3; Binding of serum 6 to looped/cyclic peptides of protein X2 of SARS-CoV Urbani [2]: 0.7; Binding of serum 37 to linear peptides of protein X2 [2]: 0.5; Binding of serum 37 to looped/cyclic peptides of protein X2 of SARS-CoV Urbani [2]: 0.4; Binding of serum 62 to linear peptides of protein X2 [2]: 0.5; Binding of serum 62 to looped/cyclic peptides of protein X2 of SARS-CoV Urbani [2]: 0.6; Binding of serum London to linear peptides of protein X2 [2]: 0.4; Binding of serum London to looped/cyclic peptides of protein X2 of SARS-CoV Urbani [2]: 1.1; Binding of serum SARS-green to linear peptides of protein X2 [2]: 0.5; Binding of serum SARS-green to looped/cyclic peptides of protein X2 of SARS-CoV Urbani [2]: 0.3; Binding of serum SARS-yellow to linear peptides of protein X2 [2]: 0.5; Binding of serum SARS-yellow to looped/cyclic peptides of protein X2 of SARS-CoV Urbani [2]: 0.5 |
| LLVAAGMEAQFLYLY | 0.5 | 0.5 | 0.7 | 0.6 | 0.8 | 0.6 | 0.7 | 0.5 | 0.6 | 0.6 | 0.5 | 0.3 | 0.6 | 0.6 | 0.5 | 0.6 | 0.3 | 0.2 | 0.2 | 0.5 | Binding of serum SARS-green to linear peptides of protein X1 of SARS-CoV Urbani [2]: 0.1; Binding of serum SARS-green to looped/cyclic peptide (PEPSCAN-ELISA) [2]: 0.4; Binding of serum SARS-yellow to linear peptides of protein X1 of SARS-CoV Urbani [2]: 0.4; Binding of serum SARS-yellow to looped/cyclic peptide (PEPSCAN-ELISA) [2]: 0.5 |
| LPFGWLVIGVAFLAV | 0.5 | 0.7 | 0.7 | 0.4 | 0.8 | 0.5 | 0.6 | 0.3 | 0.7 | 0.4 | 0.5 | 0.3 | 0.7 | 0.6 | 0.8 | 0.6 | 0.3 | 0.2 | 2.0 | 0.5 | Binding of serum SARS-green to linear peptides of protein X1 of SARS-CoV Urbani [2]: 0.3; Binding of serum SARS-green to looped/cyclic peptide (PEPSCAN-ELISA) [2]: 0.3; Binding of serum SARS-yellow to linear peptides of protein X1 of SARS-CoV Urbani [2]: 0.7; Binding of serum SARS-yellow to looped/cyclic peptide (PEPSCAN-ELISA) [2]: 0.3 |
| LPFHRWHTMVQTCTP | 0.5 | 0.6 | 0.5 | 0.4 | – | – | – | – | – | – | – | – | – | – | – | – | – | – | – | – | Binding of serum 1a to linear peptides of protein X5 of SARS-CoV Urbani [2]: 0.8; Binding of serum 1a to looped/cyclic peptides of protein X5 of SARS-CoV Urbani [2]: 0.5; Binding of serum 1b to linear peptides of protein X5 of SARS-CoV Urbani [2]: 0.7; Binding of serum 1b to looped/cyclic peptides of protein X5 of SARS-CoV Urbani [2]: 0.4; Binding of serum 2 to linear peptides of protein X5 of SARS-CoV Urbani [2]: 0.9; Binding of serum 2 to looped/cyclic peptides of protein X5 of SARS-CoV Urbani [2]: 0.5; Binding of serum 6 to linear peptides of protein X5 of SARS-CoV Urbani [2]: 0.6; Binding of serum 6 to looped/cyclic peptides of protein X5 of SARS-CoV Urbani [2]: 0.3; Binding of serum 37 to linear peptides of protein X5 of SARS-CoV Urbani [2]: 0.8; Binding of serum 37 to looped/cyclic peptides of protein X5 of SARS-CoV Urbani [2]: 0.4; Binding of serum 62 to linear peptides of protein X5 of SARS-CoV Urbani [2]: 0.8; Binding of serum 62 to looped/cyclic peptides of protein X5 of SARS-CoV Urbani [2]: 0.3; Binding of serum London to linear peptides of protein X5 of SARS-CoV Urbani [2]: 0.9; Binding of serum London to looped/cyclic peptides of protein X5 of SARS-CoV Urbani [2]: 0.2; Binding of serum SARS-green to linear peptides of protein X5 of SARS-CoV Urbani [2]: 0.6; Binding of serum SARS-green to looped/cyclic peptides of protein X5 of SARS-CoV Urbani [2]: 0.3; Binding of serum SARS-yellow to linear peptides of protein X5 of SARS-CoV Urbani [2]: 0.4; Binding of serum SARS-yellow to looped/cyclic peptides of protein X5 of SARS-CoV Urbani [2]: 0.2; Rabbit serum linear peptides [3]: 0.5; Rabbit serum looped peptides [3]: 0.3 |
